Assay results as given in patent US20090191173A1, “Induction Of Neurogenesis And Stem Cell Therapy In Combination With Copolymer 1” (priority 2004, published 2009).

Assays:
microglia = experiment: TNF-α and IGF-I expression in treated microglia (RT-PCR, immunocytochemistry); format: cell-based, mouse; details: IFN-γ 20 ng/ml
Excerpt: (vi) Immunocytochemistry. Cover slips from co-cultures of NPCs and mouse microglia were washed with PBS, fixed as described above, treated with a permeabilization/blocking solution containing 10% FCS, 2% bovine serum albumin, 1% glycine, and 0.1% Triton X-100 (Sigma-Aldrich, Rehovot) and stained with a combination of the mouse or rabbit anti-tubulin β-III-isoform C-terminus antibodies (β-III-tubulin; 1:500), rabbit anti-NG2 chondroitin sulfate proteoglycan (NG2; 1:500), mouse anti-RIP (RIP; 1:2000), mouse anti-galactocerebroside (GalC; 1:250), mouse anti-glutamic acid decarboxylase 67 (GAD; 1:1000), mouse anti-nestin (Nestin; 1:1000), rat anti-myelin basic protein (MBP; 1:300) (all from Chemicon, Temecula, Calif.), goat anti-double cortin (DCX; 1:400, Santa Cruz Biotechnology, Santa Cruz, Calif.) and mouse anti-glial fibrillary acidic protein (GFAP; 1:100, Sigma-Aldrich, St. Louis). […] Expression of IGF-1 was detected by goat anti-IGF-1 (1:20, R&D Systems). […]
We assayed the expression of specific mRNAs using semi-quantitative reverse transcription PCR (RT-PCR) with selected gene-specific primer pairs, using OLIGO v6.4 (Molecular Biology Insights, Cascade, Colo.).
The RT-PCR reactions were carried out using 1 μg of cDNA, […] of each primer, and ReadyMix PCR Master Mix (ABgene, Epsom, UK) in 30-μl reactions. […] Signals were quantified using a Gel-Pro analyzer 3.1 (Media Cybernetics).

aNPCs = experiment: Neuronal differentiation of aNPCs with CD4+ T cells, T cell-conditioned medium or cytokines; format: cell-based, mouse; details: 5 days in culture with cytokine, concentrations as low as 1 ng/ml
Protocol: (xvii) Co-culturing of neural progenitor cells and T cells. CD4+ T cells were purified from lymph nodes of 8-week-old C57B16/J mice as previously described (Kipnis et al., 2004). T cells were activated in RPMI medium supplemented with L-glutamine (2 mM), 2-mercaptoethanol (5×10^−5 M), sodium pyruvate (1 mM), penicillin (100 IU/ml), streptomycin (100 μg/ml), nonessential amino acids (1 ml/100 ml), and autologous serum 2% (v/v) in the presence of mouse recombinant IL-2 (mrIL-2; 5 ng/ml) and soluble anti-CD28 and anti-CD3. antibodies (1 ng/ml). T cells were co-cultured (5×10^4 cells/well) with aNPCs (5×10^4 cells/well) for 5 d on cover slips coated with Matrigel (BD Biosciences) in 24-well plates. The cultures were then fixed with 2.5% paraformaldehyde in PBS for 30 min at room temperature and stained for neuronal markers.
We therefore sought to determine whether direct interaction between aNPCs and T cells would also result in an altered pattern of aNPC differentiation. To address this question, we activated CD4+ T cells in vitro by a cognate protocol (with anti-CD3 antibodies, anti-CD28 antibodies, and IL-2) for 24 h and then allowed their activation to continue in co-cultures with aNPCs in a transwell culture system. […] After 5 days in culture the aNPCs in the lower chamber were fixed and analyzed for the appearance of newly formed neurons. […]

## IFN-γ: recombinant interferon-γ
microglia
  IGF-I mRNA in microglia as a function of time: down-regulation of IGF-I
  TNF-α production by microglia as a function of time: transient increase in TNF-α production
aNPCs
  β-III-tubulin expression in aNPCs: could induce an increase in β-III-tubulin expression
